Data from the NIST ThermoML archive (doi:10.1021/je060203o).

Details: Liquid; for mass density: Vibrating tube method; for speed of sound: Pulse-echo method

CCCCCn1cc[n+](C)c1.O=S(=O)([N-]S(=O)(=O)C(F)(F)F)C(F)(F)F
Details | mass density [kg/m3] | speed of sound [m/s]
313.15 K, 25860 kPa | 1409.15 | –
313.15 K, 31480 kPa | 1412.95 | –
313.15 K, 37770 kPa | 1417.13 | –
313.15 K, 44170 kPa | 1421.26 | –
313.15 K, 50750 kPa | 1425.48 | –
313.15 K, 59590 kPa | 1431.06 | –
318.15 K, 100 kPa | 1385.75 | –
318.15 K, 500 kPa | – | 1187.3
318.15 K, 1830 kPa | 1387.09 | –
318.15 K, 3500 kPa | – | 1198.6
318.15 K, 7000 kPa | – | 1211.5
318.15 K, 10000 kPa | – | 1222.4
318.15 K, 10020 kPa | 1393.29 | –
318.15 K, 13500 kPa | – | 1234.8
318.15 K, 14980 kPa | 1396.9 | –
318.15 K, 16990 kPa | – | 1246.9
318.15 K, 19750 kPa | 1400.31 | –
318.15 K, 20000 kPa | – | 1257
318.15 K, 25860 kPa | 1404.59 | –
318.15 K, 30000 kPa | – | 1290
318.15 K, 31480 kPa | 1408.43 | –
318.15 K, 37770 kPa | 1412.65 | –
318.15 K, 40000 kPa | – | 1321
318.15 K, 44170 kPa | 1416.86 | –
318.15 K, 50000 kPa | – | 1350.2
318.15 K, 50750 kPa | 1421.15 | –
318.15 K, 59590 kPa | 1426.81 | –
318.15 K, 60000 kPa | – | 1378.2
318.15 K, 70000 kPa | – | 1404.9
318.15 K, 80000 kPa | – | 1430.7
318.15 K, 90000 kPa | – | 1455.5
318.15 K, 100000 kPa | – | 1479.5
318.15 K, 112500 kPa | – | 1508
318.15 K, 125000 kPa | – | 1535.9
318.15 K, 137510 kPa | – | 1562.6
318.15 K, 150000 kPa | – | 1587.4
323.15 K, 100 kPa | 1381.45 | –
323.15 K, 1830 kPa | 1382.69 | –
323.15 K, 10020 kPa | 1388.89 | –
323.15 K, 14980 kPa | 1392.55 | –
323.15 K, 19750 kPa | 1395.96 | –
323.15 K, 25860 kPa | 1400.22 | –
323.15 K, 31480 kPa | 1404.06 | –
323.15 K, 37770 kPa | 1408.3 | –
323.15 K, 44170 kPa | 1412.52 | –
323.15 K, 50750 kPa | 1416.77 | –
323.15 K, 59590 kPa | 1422.52 | –
325.15 K, 100 kPa | 1379.56 | –
325.15 K, 1830 kPa | 1380.89 | –
325.15 K, 10020 kPa | 1387.23 | –
325.15 K, 14980 kPa | 1390.89 | –
325.15 K, 19750 kPa | 1394.39 | –
325.15 K, 25860 kPa | 1398.72 | –
325.15 K, 31480 kPa | 1402.63 | –
325.15 K, 37770 kPa | 1406.92 | –
325.15 K, 44170 kPa | 1411.19 | –
325.15 K, 50750 kPa | 1415.51 | –
325.15 K, 59590 kPa | 1421.18 | –
327.15 K, 100 kPa | 1377.56 | –
327.15 K, 1830 kPa | 1378.86 | –
327.15 K, 10020 kPa | 1385.24 | –
327.15 K, 14980 kPa | 1388.96 | –
327.15 K, 19750 kPa | 1392.45 | –
327.15 K, 25860 kPa | 1396.84 | –
327.15 K, 31480 kPa | 1400.77 | –
327.15 K, 37770 kPa | 1405.12 | –
327.15 K, 44170 kPa | 1409.39 | –
327.15 K, 50750 kPa | 1413.81 | –
327.15 K, 59590 kPa | 1419.56 | –
328.15 K, 500 kPa | – | 1165.8
328.15 K, 3500 kPa | – | 1177.4
328.15 K, 7000 kPa | – | 1190.6
328.15 K, 10000 kPa | – | 1201.8
328.15 K, 13500 kPa | – | 1214.2
328.15 K, 16990 kPa | – | 1226.6
328.15 K, 20000 kPa | – | 1236.9
328.15 K, 30000 kPa | – | 1270.5
328.15 K, 40000 kPa | – | 1301.9
328.15 K, 50000 kPa | – | 1331.7
328.15 K, 60000 kPa | – | 1360.1
328.15 K, 70000 kPa | – | 1387.2
328.15 K, 80000 kPa | – | 1413.4
328.15 K, 90000 kPa | – | 1438.4
328.15 K, 100000 kPa | – | 1462.6
328.15 K, 112500 kPa | – | 1491.6
328.15 K, 125000 kPa | – | 1519.6
328.15 K, 137510 kPa | – | 1546.6
328.15 K, 150000 kPa | – | 1571.5
329.15 K, 100 kPa | 1375.46 | –
329.15 K, 1830 kPa | 1376.78 | –
329.15 K, 10020 kPa | 1383.2 | –
329.15 K, 14980 kPa | 1386.93 | –
329.15 K, 19750 kPa | 1390.47 | –
329.15 K, 25860 kPa | 1394.89 | –
329.15 K, 31480 kPa | 1398.85 | –
329.15 K, 37770 kPa | 1403.2 | –
329.15 K, 44170 kPa | 1407.56 | –
329.15 K, 50750 kPa | 1411.94 | –
329.15 K, 59590 kPa | 1417.73 | –
331.15 K, 100 kPa | 1373.32 | –
331.15 K, 1830 kPa | 1374.64 | –
331.15 K, 10020 kPa | 1381.17 | –
331.15 K, 14980 kPa | 1384.96 | –
331.15 K, 19750 kPa | 1388.53 | –
331.15 K, 25860 kPa | 1392.98 | –
331.15 K, 31480 kPa | 1396.98 | –
331.15 K, 37770 kPa | 1401.34 | –
331.15 K, 44170 kPa | 1405.67 | –
331.15 K, 50750 kPa | 1410.08 | –
331.15 K, 59590 kPa | 1415.87 | –
333.15 K, 100 kPa | 1371 | –
333.15 K, 1830 kPa | 1372.46 | –
333.15 K, 10020 kPa | 1379.05 | –
333.15 K, 14980 kPa | 1382.89 | –
333.15 K, 19750 kPa | 1386.48 | –
333.15 K, 25860 kPa | 1390.95 | –
333.15 K, 31480 kPa | 1395.01 | –
333.15 K, 37770 kPa | 1399.42 | –
333.15 K, 44170 kPa | 1403.81 | –
333.15 K, 50750 kPa | 1408.2 | –
333.15 K, 59590 kPa | 1414.01 | –
338.15 K, 500 kPa | – | 1144.8
338.15 K, 3500 kPa | – | 1156.5
338.15 K, 7000 kPa | – | 1170
338.15 K, 10000 kPa | – | 1181.4
338.15 K, 13500 kPa | – | 1194.3
338.15 K, 16990 kPa | – | 1206.7
338.15 K, 20000 kPa | – | 1217.2
338.15 K, 30000 kPa | – | 1251.3
338.15 K, 40000 kPa | – | 1283.3
338.15 K, 50000 kPa | – | 1313.6
338.15 K, 60000 kPa | – | 1342.4
338.15 K, 70000 kPa | – | 1369.8
338.15 K, 80000 kPa | – | 1396.3
338.15 K, 90000 kPa | – | 1421.6
338.15 K, 100000 kPa | – | 1446.3
338.15 K, 112500 kPa | – | 1475.3
338.15 K, 125000 kPa | – | 1503.7
338.15 K, 137510 kPa | – | 1530.9
338.15 K, 150000 kPa | – | 1556.2
